Results published in article PMC5955599, “The HTLV-1 gp21 fusion peptide inhibits antigen specific T-cell activation in-vitro and in mice” (PLoS Pathogens, 2018).

Tested on: C57BL/6 female mice
Experiment: MOG35-55-induced experimental autoimmune encephalomyelitis (EAE)
Format: in vivo, mouse
Protocol: (A-B) MOG35-55–antigen specific T-cells were activated by irradiated MOG35-55 presenting APCs, in the presence of HTLV FP or HTLV Scr at 10μM. (A) The proliferative responses were assessed by H^3-thymidine incorporation assay, and normalized to the proliferation of non-activated T-cells. The data is presented as mean inhibition of proliferation. n = 12. (B) IFN-γ was measured by ELISA assay. n = 12. (C-D) EAE was induced in C57BL/6 female mice that were treated with a single dose of HTLV FP, HTLV Scr or vehicle. […] (C) Direct clinical measurement of EAE phenotype in a 5-point scale with increased disease symptoms correlating with higher score value. The data is presented as mean EAE clinical score. (D) Mice were weighed the day before EAE induction, and the change (as a percentage) in weight was recorded. The data is presented as mean change from the initial weight. One-way ANOVA was used for statistical analysis. ^a HTLV FP ≠ Vehicle; ^b HTLV FP ≠ Vehicle & HTLV Scr; ^c HTLV FP ≠ HTLV Scr. ^a,b,cP<0.05. (E) Spleenocytes were harvested at 26 DPI and stimulated using MOG35-55. The proliferative responses were assessed by H^3-thymidine incorporation assay and normalized to the proliferation of non-activated T-cells. The data is presented as counts per minute (CPM). n = 7. (F-G) Spleenocytes were harvested at 26 DPI and stimulated using MOG35-55. Media was collected 48 hours following activation and secretion of IFN-γ and IL4 was measured by ELISA assay. […] One-way ANOVA was used for statistical analysis. *P<0.05;**P<0.01;***P<0.001; ns, not significant.
EAE was induced in 9-week-old wild type and homozygous C57BL/6 female mice (Harlan Laboratories Israel/ Weizmann Institute animal facilities) by injecting a peptide comprising residues 35–55 of mouse myelin oligodendrocyte glycoprotein (MOG35–55; PolyPeptide Laboratories, Strasbourg, France). Mice were injected subcutaneously above the lumbar spinal cord with 100 μl of emulsion containing 200 μg/mouse of the encephalitogenic peptide in complete Freund’s adjuvant (BD-Difco) enriched with 250 μg/mouse of heat-inactivated Mycobacterium tuberculosis (BD-Difco) at 0 days post-induction (DPI). The HTLV FP was dissolved in PBS and added to the emulsion (1mg/kg). Pertussis toxin (Enzo Life Sciences) at a dose of 300 ng per mouse was injected intraperitoneally immediately after the encephalitogenic injection, as well as at […]. EAE disease was scored using a five-point grading with 0 for no clinical disease; 1, tail weakness; 2, paraparesis (incomplete paralysis of one or two hindlimbs); 3, paraplegia (complete paralysis of one or two hindlimbs); 4, paraplegia with forelimb weakness or paralysis; 5, moribund or dead animals. The mice were examined daily.
EAE was induced in C57BL/6 female mice that were either treated with a single dose of HTLV FP or vehicle. […] (A) Direct clinical measurement of EAE phenotype in a 5-point scale with increased disease symptoms correlating with higher score value. The data is presented as mean EAE clinical score. (B) Mice were weighed the day before EAE induction, and the change (as a percentage) in weight was recorded. The data is presented as mean change from the initial weight. Student’s t-test was used for statistical analysis. *P<0.05; **P<0.01;***P<0.001. (TIF) Click here for additional data file.

AVPVAVWLVSALAMGAGVAGGITGSMSLASGKS [HTLV FP, gp21 fusion peptide of HTLV-1, MT-2 isolate]
clinical symptoms of a cage of treated mice at DPI 17 (additional experiment, S5 and S6 Movies): mild clinical symptoms
mice exhibiting no clinical manifestation at DPI 17 (additional experiment, S6 Movie): 3 out of 5
clinical symptoms of a cage of treated mice at DPI 9 (initial experiment, S3 Movie): no observed clinical symptoms
mice exhibiting mild clinical symptoms at DPI 14 (initial experiment, S4 Movie, rest with no observed clinical signs): 1 out of 5
EAE clinical symptoms, initial experiment (single dose 1mg/kg added to the MOG35-55/CFA emulsion, vs vehicle, terminated at 14 DPI, 5-point scale): only mild clinical symptoms
EAE clinical signs, additional experiment (single dose 1mg/kg, HTLV FP, HTLV Scr or vehicle, period 11 to 16 DPI, 5-point scale): only mild clinical symptoms and weight loss
locomotory behavior, initial experiment (single dose 1mg/kg, S3 and S4 Movies): most of the HTLV FP treated mice exhibited normal locomotory behavior
locomotory behavior, additional experiment (single dose 1mg/kg, S5 and S6 Movies): better locomotory behavior than the HTLV Scr treated mice
weight change, initial experiment (single dose 1mg/kg, change from initial weight): only by minor weight fluctuations
weight loss, additional experiment (single dose 1mg/kg, period 11 to 16 DPI): only mild clinical symptoms and weight loss
first observation of clinical symptoms, initial experiment (single dose 1mg/kg, vehicle-treated mice first observed at 8 DPI): 11 DPI
